The values that follow come from patent publication US11291642B2, “Dimethyl fumarate particles and pharmaceutical compositions thereof” (BIOGEN MA INC., priority 2015, dated 2022).

Where a name gives a salt, the structure may show the parent alone.

Common to all, as to type: physicochemical
Series [1] can be described thus: FT4 Powder Rheometer shear test (flow function). Conditions: for Flow Function: FT4, Table 2, FF=MPS/UYS; for Flow Function (FF): 350 kg batch, FT4, Table 3. As to the method:
Shear testing measures powder shear properties which involves the stress limit required to initiate a powder flow. The shear testing uses a segmented rotational shear cell head and a 10 ml powder sample in the borosilicate test vessel. Powder is filled into the vessel. The shear cell head is simultaneously rotated and moved axially under the powder sample at pre-determined normal stresses as the shear stresses are measured to calculate several parameters, including the flow function (FF). As used herein, “flow function” or FF is a parameter commonly used to rank powder's flowability and is determined using a shear test. The data produced in the shear test represents the relationship between shear stress and normal stress, which can be plotted to define the powder's Yield Locus, which is shown in FIG. 21. Fitting Mohr stress circles to the yield locus identifies the Major Principle Stress (MPS) and Unconfined Yield Strength (UYS). Flow function is the ratio of Major Principle Stress (MPS) to the Unconfined Yield Strength (UYS): FF=MPS/UYS. Usually, powders of low cohesion have higher FF and that represents better flow properties. Shear testing measures powder shear properties which involves the stress limit required to initiate a powder flow. The shear testing used a segmented rotational shear cell head and a 10 ml powder sample in the borosilicate test vessel. Powder was filled into the vessel. The shear cell head was simultaneously rotated and moved axially unto the powder sample at pre-determined normal stresses as the shear stresses were measured to calculate several parameters that include the flow function (FF) and powder cohesion (in kPa). Usually, powders of low cohesion have higher FF and that represents better flow properties.

Series [2] is described as follows: Particle size of dimethyl fumarate by Malvern laser diffraction. Conditions: for Span: Span=(D90−D10)/D50; for Span / D × 10 (μm) / D × 50 (μm) / D × 90 (μm) / D × 97 (μm) / ≤10 μm: Table 1; for ≤10 μm: fraction of particles ≤10 μm; for d10 / d50 / d90: 350 kg batch, laser diffraction, Table 3. On the procedure: As use herein, the particle size is expressed in terms of volume diameter and the particle size distribution is expressed in terms of D50, D10, D90 and span.
In certain embodiments, the particle size described herein are measured using a laser diffraction technique that correlates light scattering to particle volume on which effective length or effective diameter is calculated. The distribution is based on a measurement of thousands of particles. Particle samples can be in dry form or in slurry. In one embodiment, the instrument used to determine particle size/distribution is a Beckman Coulter LS230 or a Malvern Mastersizer.
As used herein, “D50”, also known as the median diameter, corresponds to the value under which 50% of the particles has a lower volume diameter. “D90” corresponds to the value under which 90% of the particles has a lower volume diameter. “D10” corresponds to the value under which 10% of the particles has a lower volume diameter.
As used herein, “span” is a measure for particle size distribution. It is calculated according to the following equation: Span=(D90−D10)/D50

A short description of series [3]: FT4 Powder Rheometer dynamic testing (flow rate index, specific energy). Conditions: for Flow Rate Index: flow energy at 10 mm/s / 100 mm/s. As to the method: In certain embodiments, powder characterization described herein can be determined using the FT4 Powder Rheometer (Freeman Technology Ltd, Tewkesbury, UK) with the 25 mm vessel assembly having 23.5 mm diameter blades, vented piston, a segmented rotational shear cell accessory and a 10 or 25 ml borosilicate vessel. Powder testing can be generally divided into three categories: dynamic tests, permeability test and shear test. Dynamic testing uses the 23.5 mm diameter blades and a 25 ml powder sample in the borosiliate test vessel. Powder is filled into the vessel and the blades are simultaneously rotated and moved axially into the powder sample as the axial and rotational forces are measure and used to calculate the dynamic flowability parameters, such as flow rate index (FRI) and Specific Energy (SE). As used herein, the “flow rate index” (or FRI) is a measure of a powder's sensitivity to variable flow rate and is obtained as the ratio of the total energy required to induce powder flow at 10 mm/s and 100 mm/s blade tip speed. A larger deviation from 1 indicates greater sensitivity of a powder to variable flow rate. FRI=Flow Energy@10mm/s/Flow Energy@100mm/s As used herein, “specific energy” or SE is a measure of the powder flow in low stress environment and is derived from the shear forces acting on the blades as they rotate upward through the powder. The SE is recorded as the flow energy of the powder normalized by its weight in mJ/g during the upward spiral movement of the blades in a FT4 Powder Rheometer describe above. A lower SE is an indication of a less cohesive powder and better flow properties. DMF powder characterization was conducted using the FT4 Powder Rheometer (Freeman Technology Ltd, Tewkesbury, UK) using the 25 mm vessel assembly which consists of 23.5 mm diameter blades, vented piston, a segmented rotational shear cell accessory; and a 10 or 25 ml borosilicate vessel. All powders were pre-conditioned by the instrument's built-in conditioning step. Dynamic testing used the 23.5 mm diameter blades and a 25 ml powder sample in the borosilicate test vessel. Powder was filled into the vessel. The blades were simultaneously rotated and moved axially into the powder sample as the axial and rotational forces were measured and used to calculate the dynamic flowability parameters. Among dynamic parameters tested are Flow rate Index (FRI) and Specific Energy (SE). Their measurement techniques are described below: The FRI is a measure of a powder's sensitivity to variable flow rate and it is obtained as the ratio of the total energy required to induce powder flow at 10 mm/s and 100 mm/s blade tip speed. A larger deviation from 1 indicates greater sensitivity of a powder to variable flow rate. SE is a measure of the powder flow in low stress environment and is derived from the shear forces acting on the blades as they rotate upward through the powder. The SE is recorded as the flow energy of the powder normalized by its weight in […] during the upward spiral movement of the blades. A lower SE is an indication of a less cohesive powder and better flow properties.

[4] abbreviates: FT4, Table 2, no unit printed in table (mJ/g).

On to `COC(=O)/C=C/C(=O)OC` [2014-4281-A.4, dimethyl fumarate], for which, in series [1], the “Flow Function” value is listed as 5.84. Further, in series [2], the Span is 1.562, the “D × 10 (μm)” value stood at 31.9 μm, the “D × 50 (μm)” value came out at 96 μm and the “D × 90 (μm)” value came out at 182 μm. In addition, in series [2], the “D × 97 (μm)” value was determined as 235 μm and the “≤10 μm” value worked out at 2.61%. Also, the “Flow Rate Index” value in series [3] (FT4, Table 2) turned out to be 1.11. Besides, in series [3] (setting [4]), the “Specific Energy” value is given as 4.87.
Regarding `COC(=O)/C=C/C(=O)OC` [2014-4281-A.8, dimethyl fumarate], in series [1], the “Flow Function” value came to 3.29. In addition, in series [2], the Span turned out to be 1.71, the “D × 10 (μm)” value was 27.2 μm, the “D × 50 (μm)” value was 70.8 μm and the “D × 90 (μm)” value is reported as 148 μm. Also, in series [2], the “D × 97 (μm)” value is 208 μm and the “≤10 μm” value was 3.87%. In addition, the “Flow Rate Index” value in series [3] (FT4, Table 2) was found to be 1.37. Besides, in series [3] (setting [4]), the “Specific Energy” value came out at 6.64.
Regarding `COC(=O)/C=C/C(=O)OC` [2014-4281-A.9, dimethyl fumarate], the “Flow Function” value in series [1] was 2.50. For the same compound, in series [2], the Span worked out at 1.58, the “D × 10 (μm)” value was determined as 26.8 μm, the “D × 50 (μm)” value is given as 88.2 μm and the “D × 90 (μm)” value came out at 166 μm. For the same compound, in series [2], the “D × 97 (μm)” value was 210 μm and the “≤10 μm” value came out at 3.02%. The “Flow Rate Index” value in series [3] (FT4, Table 2) turned out to be 1.33. Moreover, the “Specific Energy” value in series [3] (setting [4]) turned out to be 6.42.
With `COC(=O)/C=C/C(=O)OC` [Batch 11P1310, dimethyl fumarate], in series [2], the Span is 2.05, the “D × 10 (μm)” value is on record as 9 μm, the “D × 50 (μm)” value was 30 μm and the “D × 90 (μm)” value turned out to be 70 μm. Further, in series [2], the “D × 97 (μm)” value was 97 μm and the “≤10 μm” value stood at 11.48%.
As to `COC(=O)/C=C/C(=O)OC` [Batch A14DS0977, dimethyl fumarate], in series [2], the Span is on record as 1.554, the “D × 10 (μm)” value came to 51.5 μm, the “D × 50 (μm)” value amounted to 127 μm and the “D × 90 (μm)” value is 249 μm. In series [2], the “D × 97 (μm)” value amounted to 319 μm and the “≤10 μm” value is 1.87%.
For `COC(=O)/C=C/C(=O)OC` [Batch A14DS0978, dimethyl fumarate], the “Flow Function” value in series [1] turned out to be 12.84. In series [2], the Span is reported as 1.593, the “D × 10 (μm)” value was 44.1 μm, the “D × 50 (μm)” value is on record as 113 μm and the “D × 90 (μm)” value turned out to be 224 μm. Moreover, in series [2], the “D × 97 (μm)” value stood at 294 μm and the “≤10 μm” value is 2.32%. Also, the “Flow Rate Index” value in series [3] (FT4, Table 2) turned out to be 1.68. For the same compound, the “Specific Energy” value in series [3] (setting [4]) is 8.67.
Turning to `COC(=O)/C=C/C(=O)OC` [Batch A14DS1097, dimethyl fumarate], in series [1], the “Flow Function” value was 5.97. In addition, in series [2], the Span worked out at 1.772, the “D × 10 (μm)” value is listed as 33.1 μm, the “D × 50 (μm)” value came to 87.8 μm and the “D × 90 (μm)” value was 189 μm. In series [2], the “D × 97 (μm)” value worked out at 257 μm and the “≤10 μm” value is 2.89%. Also, the “Flow Rate Index” value in series [3] (FT4, Table 2) is reported as 1.54. Moreover, in series [3] (setting [4]), the “Specific Energy” value is on record as 9.19.
Regarding `COC(=O)/C=C/C(=O)OC` [Batch B1417-140304, dimethyl fumarate], in series [1], the “Flow Function” value came out at 2.25. Besides, in series [3] (FT4, Table 2), the “Flow Rate Index” value amounted to 1.50. In addition, the “Specific Energy” value in series [3] (setting [4]) worked out at 5.48.
`COC(=O)/C=C/C(=O)OC` [Run 1, dimethyl fumarate]: in series [1], the “Flow Function (FF)” value came out at 10.3. Further, in series [2], the d10 is 35 μm, the d50 was found to be 83 μm and the d90 came to 156 μm. In series [3] (350 kg batch, FT4, Table 3), the “Flow rate Index (FRI)” value was determined as 1.61 and the “Specific Energy” value was 12.21 mJ/g.
As for `COC(=O)/C=C/C(=O)OC` [Run 2, dimethyl fumarate], in series [1], the “Flow Function (FF)” value is listed as 4.95. In series [2], the d10 stood at 39 μm, the d50 was 83 μm and the d90 worked out at 150 μm. In series [3] (350 kg batch, FT4, Table 3), the “Flow rate Index (FRI)” value is recorded as 1.39 and the “Specific Energy” value was found to be 12.18 mJ/g.
